Measured values reported in PubChem BioAssay (NCI).
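Protocol summary: plate cells (96-well), add compound at 5 concentrations, incubate 48 h, interpolate endpoints linearly. GI50 marks 50% less growth. TGI: total growth inhibition.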

How the values were obtained:
Assay in all cases: NCI anticancer screen, dose series, 48 h
786-0 renal = system: 786-0 renal
A498 renal = system: A498 renal
A549 NSCLC = system: A549 NSCLC
ACHN renal = system: ACHN renal
CAKI-1 renal = system: CAKI-1 renal
CCRF-CEM leukemia = system: CCRF-CEM leukemia
COLO 205 colon = system: COLO 205 colon
DU-145 prostate = system: DU-145 prostate
HCC-2998 colon = system: HCC-2998 colon
HCT-116 colon = system: HCT-116 colon
HCT-15 colon = system: HCT-15 colon
HL-60(TB) leukemia = system: HL-60(TB) leukemia
HOP-92 NSCLC = system: HOP-92 NSCLC
HS 578T breast = system: HS 578T breast
HT29 colon = system: HT29 colon
IGROV1 ovarian = system: IGROV1 ovarian
K-562 leukemia = system: K-562 leukemia
LOX IMVI melanoma = system: LOX IMVI melanoma
M14 melanoma = system: M14 melanoma
MALME-3M melanoma = system: MALME-3M melanoma
MDA-MB-231 breast = system: MDA-MB-231 breast
MDA-MB-435 = system: MDA-MB-435
MDA-MB-468 breast = system: MDA-MB-468 breast
MOLT-4 leukemia = system: MOLT-4 leukemia
NCI-H226 lung = system: NCI-H226 lung
NCI-H522 lung = system: NCI-H522 lung
OVCAR-4 ovarian = system: OVCAR-4 ovarian
OVCAR-5 ovarian = system: OVCAR-5 ovarian
PC-3 prostate = system: PC-3 prostate
RPMI-8226 leukemia = system: RPMI-8226 leukemia
SF-268 CNS = system: SF-268 CNS
SF-539 CNS = system: SF-539 CNS
SK-MEL-2 melanoma = system: SK-MEL-2 melanoma
SK-MEL-28 melanoma = system: SK-MEL-28 melanoma
SK-MEL-5 melanoma = system: SK-MEL-5 melanoma
SK-OV-3 ovarian = system: SK-OV-3 ovarian
SN12C renal = system: SN12C renal
SNB-19 CNS = system: SNB-19 CNS
SNB-75 CNS = system: SNB-75 CNS
SR leukemia = system: SR leukemia
TK-10 renal = system: TK-10 renal
U251 CNS = system: U251 CNS
UACC-257 melanoma = system: UACC-257 melanoma
UACC-62 melanoma = system: UACC-62 melanoma
UO-31 renal = system: UO-31 renal
BT-549 breast = system: BT-549 breast
EKVX NSCLC = system: EKVX NSCLC
HOP-62 NSCLC = system: HOP-62 NSCLC
KM12 colon = system: KM12 colon
MCF7 breast = system: MCF7 breast
NCI-H23 lung = system: NCI-H23 lung
NCI/ADR-RES ovarian = system: NCI/ADR-RES ovarian
OVCAR-3 ovarian = system: OVCAR-3 ovarian
OVCAR-8 ovarian = system: OVCAR-8 ovarian
RXF 393 renal = system: RXF 393 renal
SF-295 CNS = system: SF-295 CNS
T-47D breast = system: T-47D breast

Cn1cc(-c2cc3nc(-c4c[nH]c5ccc(Br)cc45)cc(N)n3n2)c2ccccc21
GI50 (786-0 renal): 1.6 µM | TGI (786-0 renal): 3.27 µM | GI50 (A498 renal): 1.67 µM | TGI (A498 renal): 3.34 µM | GI50 (A549 NSCLC): 1.53 µM | TGI (A549 NSCLC): 3.45 µM | GI50 (ACHN renal): 1.69 µM | TGI (ACHN renal): 3.13 µM | GI50 (CAKI-1 renal): 1.5 µM | TGI (CAKI-1 renal): 3.06 µM | GI50 (CCRF-CEM leukemia): 2.67 µM | TGI (CCRF-CEM leukemia): 9.34 µM | GI50 (COLO 205 colon): 1.89 µM | TGI (COLO 205 colon): 3.51 µM | GI50 (DU-145 prostate): 1.92 µM | TGI (DU-145 prostate): 3.75 µM | GI50 (HCC-2998 colon): 1.79 µM | TGI (HCC-2998 colon): 3.26 µM | GI50 (HCT-116 colon): 3 µM | TGI (HCT-116 colon): > 100 µM | GI50 (HCT-15 colon): 1.43 µM | TGI (HCT-15 colon): 2.79 µM | GI50 (HL-60(TB) leukemia): 1.84 µM | TGI (HL-60(TB) leukemia): 4.34 µM | GI50 (HOP-92 NSCLC): 1.51 µM | TGI (HOP-92 NSCLC): 3.08 µM | GI50 (HS 578T breast): 1.98 µM | TGI (HS 578T breast): 4.87 µM | GI50 (HT29 colon): 1.66 µM | TGI (HT29 colon): 3.08 µM | GI50 (IGROV1 ovarian): 1.5 µM | TGI (IGROV1 ovarian): 2.98 µM | GI50 (K-562 leukemia): 2.29 µM | TGI (K-562 leukemia): 5.94 µM | GI50 (LOX IMVI melanoma): 1.68 µM | TGI (LOX IMVI melanoma): 3.04 µM | GI50 (M14 melanoma): 2.29 µM | TGI (M14 melanoma): 5.78 µM | GI50 (MALME-3M melanoma): 1.66 µM | TGI (MALME-3M melanoma): 3.01 µM | GI50 (MDA-MB-231 breast): 1.77 µM | TGI (MDA-MB-231 breast): 3.17 µM | GI50 (MDA-MB-435): 1.71 µM | TGI (MDA-MB-435): 3.09 µM | GI50 (MDA-MB-468 breast): 1.49 µM | TGI (MDA-MB-468 breast): 3.01 µM | GI50 (MOLT-4 leukemia): 1.67 µM | TGI (MOLT-4 leukemia): 5.15 µM | GI50 (NCI-H226 lung): 1.96 µM | TGI (NCI-H226 lung): 5.07 µM | GI50 (NCI-H522 lung): 1.5 µM | TGI (NCI-H522 lung): 3.08 µM | GI50 (OVCAR-4 ovarian): 1.71 µM | TGI (OVCAR-4 ovarian): 3.49 µM | GI50 (OVCAR-5 ovarian): 1.62 µM | TGI (OVCAR-5 ovarian): 3.26 µM | GI50 (PC-3 prostate): 1.64 µM | TGI (PC-3 prostate): 3.24 µM | GI50 (RPMI-8226 leukemia): 2.73 µM | TGI (RPMI-8226 leukemia): 7.93 µM | GI50 (SF-268 CNS): 1.89 µM | TGI (SF-268 CNS): 4.43 µM | GI50 (SF-539 CNS): 1.66 µM | TGI (SF-539 CNS): 3.07 µM | GI50 (SK-MEL-2 melanoma): 1.74 µM | TGI (SK-MEL-2 melanoma): 3.48 µM | GI50 (SK-MEL-28 melanoma): 1.78 µM | TGI (SK-MEL-28 melanoma): 3.22 µM | GI50 (SK-MEL-5 melanoma): 1.71 µM | TGI (SK-MEL-5 melanoma): 3.15 µM | GI50 (SK-OV-3 ovarian): 1.98 µM | TGI (SK-OV-3 ovarian): 4.03 µM | GI50 (SN12C renal): 1.65 µM | TGI (SN12C renal): 3.05 µM | GI50 (SNB-19 CNS): 1.67 µM | TGI (SNB-19 CNS): 3.09 µM | GI50 (SNB-75 CNS): 1.32 µM | TGI (SNB-75 CNS): 3.11 µM | GI50 (SR leukemia): 1.65 µM | TGI (SR leukemia): 5.28 µM | GI50 (TK-10 renal): 1.43 µM | TGI (TK-10 renal): 2.79 µM | GI50 (U251 CNS): 1.72 µM | TGI (U251 CNS): 3.27 µM | GI50 (UACC-257 melanoma): 1.72 µM | TGI (UACC-257 melanoma): 3.26 µM | GI50 (UACC-62 melanoma): 1.54 µM | TGI (UACC-62 melanoma): 2.92 µM | GI50 (UO-31 renal): 1.43 µM | TGI (UO-31 renal): 2.73 µM

COc1ccc2c(c1)c(-c1cc3nc(-c4cn(C)c5ncccc45)cc(N)n3n1)cn2C
GI50 (786-0 renal): 1.74 µM | TGI (786-0 renal): 3.2 µM | GI50 (A498 renal): 14.8 µM | TGI (A498 renal): 34.8 µM | GI50 (A549 NSCLC): 3.37 µM | TGI (A549 NSCLC): 13.8 µM | GI50 (ACHN renal): 2.09 µM | TGI (ACHN renal): 4.24 µM | GI50 (BT-549 breast): 1.83 µM | TGI (BT-549 breast): 3.77 µM | GI50 (CAKI-1 renal): 2.19 µM | TGI (CAKI-1 renal): 6.46 µM | GI50 (DU-145 prostate): 2.88 µM | TGI (DU-145 prostate): 8.26 µM | GI50 (EKVX NSCLC): 3.05 µM | TGI (EKVX NSCLC): 12.5 µM | GI50 (HCC-2998 colon): 1.81 µM | TGI (HCC-2998 colon): 3.56 µM | GI50 (HCT-116 colon): 1.67 µM | TGI (HCT-116 colon): 3.13 µM | GI50 (HCT-15 colon): 1.76 µM | TGI (HCT-15 colon): 3.6 µM | GI50 (HL-60(TB) leukemia): 2.17 µM | TGI (HL-60(TB) leukemia): 5.1 µM | GI50 (HOP-62 NSCLC): 3.11 µM | TGI (HOP-62 NSCLC): 13.3 µM | GI50 (HOP-92 NSCLC): 1.61 µM | TGI (HOP-92 NSCLC): 3.82 µM | GI50 (HS 578T breast): 2.09 µM | TGI (HS 578T breast): 6.27 µM | GI50 (IGROV1 ovarian): 2.06 µM | TGI (IGROV1 ovarian): 4.64 µM | GI50 (KM12 colon): 1.97 µM | TGI (KM12 colon): 4.32 µM | GI50 (LOX IMVI melanoma): 1.79 µM | TGI (LOX IMVI melanoma): 3.31 µM | GI50 (M14 melanoma): 1.8 µM | TGI (M14 melanoma): 3.44 µM | GI50 (MALME-3M melanoma): 1.74 µM | TGI (MALME-3M melanoma): 3.17 µM | GI50 (MCF7 breast): 2.27 µM | TGI (MCF7 breast): 5.91 µM | GI50 (MDA-MB-231 breast): 1.84 µM | TGI (MDA-MB-231 breast): 3.89 µM | GI50 (MDA-MB-435): 1.72 µM | TGI (MDA-MB-435): 3.35 µM | GI50 (MDA-MB-468 breast): 1.82 µM | TGI (MDA-MB-468 breast): 3.52 µM | GI50 (NCI-H226 lung): 2.36 µM | TGI (NCI-H226 lung): 6.92 µM | GI50 (NCI-H23 lung): 3.92 µM | TGI (NCI-H23 lung): 17.9 µM | GI50 (NCI/ADR-RES ovarian): 3.62 µM | TGI (NCI/ADR-RES ovarian): 23.5 µM | GI50 (OVCAR-3 ovarian): 1.98 µM | TGI (OVCAR-3 ovarian): 4.14 µM | GI50 (OVCAR-4 ovarian): 2.13 µM | TGI (OVCAR-4 ovarian): 5 µM | GI50 (OVCAR-5 ovarian): 4.76 µM | TGI (OVCAR-5 ovarian): 18 µM | GI50 (OVCAR-8 ovarian): 3.17 µM | TGI (OVCAR-8 ovarian): > 100 µM | GI50 (PC-3 prostate): 2.75 µM | TGI (PC-3 prostate): > 100 µM | GI50 (RPMI-8226 leukemia): 2.12 µM | TGI (RPMI-8226 leukemia): 5.44 µM | GI50 (RXF 393 renal): 1.66 µM | TGI (RXF 393 renal): 3.21 µM | GI50 (SF-268 CNS): 2.64 µM | TGI (SF-268 CNS): 8.65 µM | GI50 (SF-295 CNS): 1.81 µM | TGI (SF-295 CNS): 3.49 µM | GI50 (SF-539 CNS): 1.65 µM | TGI (SF-539 CNS): 3.06 µM | GI50 (SK-MEL-2 melanoma): 2.83 µM | TGI (SK-MEL-2 melanoma): 8.59 µM | GI50 (SK-MEL-28 melanoma): 1.64 µM | TGI (SK-MEL-28 melanoma): 3.02 µM | GI50 (SK-MEL-5 melanoma): 1.69 µM | TGI (SK-MEL-5 melanoma): 3.24 µM | GI50 (SK-OV-3 ovarian): 4.65 µM | TGI (SK-OV-3 ovarian): 33 µM | GI50 (SN12C renal): 5.18 µM | TGI (SN12C renal): 18.2 µM | GI50 (SNB-19 CNS): 3.98 µM | TGI (SNB-19 CNS): 16.8 µM | GI50 (T-47D breast): 3.24 µM | TGI (T-47D breast): 16.3 µM | GI50 (TK-10 renal): 4.25 µM | TGI (TK-10 renal): 14.5 µM | GI50 (UACC-62 melanoma): 1.61 µM | TGI (UACC-62 melanoma): 3.02 µM | GI50 (UO-31 renal): 1.85 µM | TGI (UO-31 renal): 4.57 µM
